# Entries after “also recorded” stand apart in the source; their conditions may differ.
# Tested on: tumorspheres of SUM159 cells
# Experiment: gene expression in sequentially passaged tumorspheres treated with chemotherapeutic agents
# Type: cell-based, human
# Settings: paclitaxel-treated SUM159 tumorspheres; 11 CSC-associated genes; percentage change normalized to primary SUM159 tumorspheres (FIG. 14)
smiles,measurement,value
CC(=O)O[C@H]1C(=O)[C@@]2(C)[C@H]([C@H](OC(=O)c3ccccc3)[C@]3(O)C[C@H](OC(=O)[C@H](O)[C@@H](NC(=O)c4ccccc4)c4ccccc4)C(C)=C1C3(C)C)[C@]1(OC(C)=O)CO[C@@H]1C[C@@H]2O [paclitaxel],expression of upregulated cancer stem cell associated genes,enhancement of the upregulation; also recorded: enhanced further

# Source: US20150030615A1, “BIOMARKERS FOR CANCER STEM CELLS AND RELATED METHODS OF USE” (VERASTEM, INC., priority 2012, published 2015)
